From the NIST ThermoML archive (doi:10.1021/je500792x)

Experiment: xn = mol fraction of the nth substance listed
Conditions: Gas, Buoyancy - hydrostatic balance with magnetic suspension - two sinkers

C [methane] + CCC
Conditions | mass density [kg/m3]
248.15 K, 120.09 kPa, x1 = 0.5069 | 1.7641
248.15 K, 129.19 kPa, x1 = 0.2658 | 2.3527
248.15 K, 129.2 kPa, x1 = 0.2658 | 2.353
248.15 K, 141.7 kPa, x1 = 0.2658 | 2.5862
248.15 K, 159.47 kPa, x1 = 0.2658 | 2.9223
248.15 K, 183.4 kPa, x1 = 0.5069 | 2.7164
248.15 K, 184.56 kPa, x1 = 0.2658 | 3.3988
248.15 K, 188.16 kPa, x1 = 0.2658 | 3.4688
248.15 K, 217.78 kPa, x1 = 0.2658 | 4.0405
248.15 K, 220.8 kPa, x1 = 0.2658 | 4.0982
248.15 K, 244.4 kPa, x1 = 0.5069 | 3.6498
248.15 K, 251.13 kPa, x1 = 0.2658 | 4.6926
248.15 K, 251.49 kPa, x1 = 0.2658 | 4.7012
248.15 K, 271.99 kPa, x1 = 0.2658 | 5.106
248.15 K, 275.99 kPa, x1 = 0.2658 | 5.1859
248.15 K, 303.31 kPa, x1 = 0.5069 | 4.5661
248.15 K, 360.5 kPa, x1 = 0.5069 | 5.4702
248.15 K, 424.87 kPa, x1 = 0.5069 | 6.5055
248.16 K, 96.6 kPa, x1 = 0.2658 | 1.7469
248.16 K, 390.04 kPa, x1 = 0.7498 | 4.4826
248.16 K, 500.33 kPa, x1 = 0.7498 | 5.7986
248.16 K, 580.7 kPa, x1 = 0.7498 | 6.7717
248.16 K, 685.07 kPa, x1 = 0.7498 | 8.0551
248.16 K, 786.24 kPa, x1 = 0.7498 | 9.3205
248.16 K, 835.6 kPa, x1 = 0.7498 | 9.9461
248.17 K, 276.07 kPa, x1 = 0.7498 | 3.1456
273.15 K, 123.94 kPa, x1 = 0.2658 | 2.0343
273.15 K, 149.35 kPa, x1 = 0.2658 | 2.4607
273.15 K, 167.49 kPa, x1 = 0.2658 | 2.7678
273.15 K, 198.96 kPa, x1 = 0.2658 | 3.3031
273.15 K, 218.04 kPa, x1 = 0.5069 | 2.9261
273.15 K, 242.18 kPa, x1 = 0.2658 | 4.0482
273.15 K, 247.99 kPa, x1 = 0.2658 | 4.1483
273.15 K, 258.4 kPa, x1 = 0.5069 | 3.4829
273.15 K, 262.29 kPa, x1 = 0.5069 | 3.5352
273.15 K, 269.26 kPa, x1 = 0.5069 | 3.6315
273.15 K, 277.28 kPa, x1 = 0.5069 | 3.7427
273.15 K, 300.07 kPa, x1 = 0.2658 | 5.0612
273.15 K, 309 kPa, x1 = 0.5069 | 4.1836
273.15 K, 321.34 kPa, x1 = 0.5069 | 4.3576
273.15 K, 323.08 kPa, x1 = 0.5069 | 4.3804
273.15 K, 340.35 kPa, x1 = 0.5069 | 4.6226
273.15 K, 344.34 kPa, x1 = 0.2658 | 5.85
273.15 K, 347.43 kPa, x1 = 0.2658 | 5.905
273.15 K, 396.65 kPa, x1 = 0.2658 | 6.7965
273.15 K, 401.7 kPa, x1 = 0.2658 | 6.8905
273.15 K, 402.73 kPa, x1 = 0.5069 | 5.504
273.15 K, 406.45 kPa, x1 = 0.2658 | 6.9764
273.15 K, 409.05 kPa, x1 = 0.5069 | 5.5939
273.15 K, 415.33 kPa, x1 = 0.5069 | 5.6832
273.15 K, 430.8 kPa, x1 = 0.2658 | 7.425
273.15 K, 441.3 kPa, x1 = 0.5069 | 6.0553
273.15 K, 445.43 kPa, x1 = 0.2658 | 7.6956
273.15 K, 453.52 kPa, x1 = 0.5069 | 6.2301
273.15 K, 486.1 kPa, x1 = 0.2658 | 8.4581
273.15 K, 491.06 kPa, x1 = 0.5069 | 6.7718
273.15 K, 491.24 kPa, x1 = 0.2658 | 8.5547
273.15 K, 491.73 kPa, x1 = 0.2658 | 8.5641
273.15 K, 492.46 kPa, x1 = 0.7498 | 5.1329
273.15 K, 497.16 kPa, x1 = 0.5069 | 6.8601
273.15 K, 500.89 kPa, x1 = 0.7498 | 5.2229
273.15 K, 503.23 kPa, x1 = 0.5069 | 6.9481
273.15 K, 506.93 kPa, x1 = 0.5069 | 7.0019
273.15 K, 537.7 kPa, x1 = 0.2658 | 9.4417
273.15 K, 542.15 kPa, x1 = 0.2658 | 9.5274
273.15 K, 556.33 kPa, x1 = 0.5069 | 7.7247
273.15 K, 562.21 kPa, x1 = 0.2658 | 9.9157
273.15 K, 568.57 kPa, x1 = 0.2658 | 10.0392
273.15 K, 598.52 kPa, x1 = 0.2658 | 10.627
273.15 K, 607.75 kPa, x1 = 0.5069 | 8.4837
273.15 K, 608.84 kPa, x1 = 0.2658 | 10.8307
273.15 K, 612.13 kPa, x1 = 0.5069 | 8.5493
273.15 K, 615.59 kPa, x1 = 0.2658 | 10.9644
273.15 K, 619.26 kPa, x1 = 0.5069 | 8.6551
273.15 K, 625.49 kPa, x1 = 0.5069 | 8.7476
273.15 K, 631.66 kPa, x1 = 0.5069 | 8.8402
273.15 K, 635.08 kPa, x1 = 0.2658 | 11.3537
273.15 K, 652.39 kPa, x1 = 0.2658 | 11.7011
273.15 K, 659.32 kPa, x1 = 0.2658 | 11.8408
273.15 K, 701.31 kPa, x1 = 0.5069 | 9.8889
273.15 K, 705.87 kPa, x1 = 0.5069 | 9.9584
273.15 K, 711.71 kPa, x1 = 0.5069 | 10.0475
273.15 K, 781.92 kPa, x1 = 0.5069 | 11.1241
273.15 K, 803.19 kPa, x1 = 0.5069 | 11.4547
273.15 K, 829.52 kPa, x1 = 0.5069 | 11.8643
273.15 K, 888.98 kPa, x1 = 0.5069 | 12.8024
273.15 K, 899.81 kPa, x1 = 0.7498 | 9.5966
273.15 K, 907.76 kPa, x1 = 0.5069 | 13.1006
273.15 K, 930.25 kPa, x1 = 0.5069 | 13.4618
273.15 K, 971.91 kPa, x1 = 0.5069 | 14.1337
273.15 K, 986.2 kPa, x1 = 0.5069 | 14.3651
273.15 K, 1000.4 kPa, x1 = 0.7498 | 10.7338
273.15 K, 1009.5 kPa, x1 = 0.5069 | 14.7469
273.15 K, 1015 kPa, x1 = 0.7498 | 10.9019
273.15 K, 1015.5 kPa, x1 = 0.5069 | 14.8424
273.15 K, 1041.7 kPa, x1 = 0.5069 | 15.2749
273.15 K, 1299.2 kPa, x1 = 0.7498 | 14.1894
273.15 K, 1500.9 kPa, x1 = 0.7498 | 16.5996
273.15 K, 1510.9 kPa, x1 = 0.7498 | 16.7231
273.15 K, 1700.4 kPa, x1 = 0.7498 | 19.0432
273.15 K, 1998.9 kPa, x1 = 0.7498 | 22.8321
273.15 K, 1999.7 kPa, x1 = 0.7498 | 22.8429
273.15 K, 2002 kPa, x1 = 0.7498 | 22.875
273.15 K, 2303.6 kPa, x1 = 0.7498 | 26.8673
293.14 K, 149.9 kPa, x1 = 0.2658 | 2.2913
293.14 K, 469.3 kPa, x1 = 0.2658 | 7.4652
293.14 K, 568.75 kPa, x1 = 0.2658 | 9.168
293.14 K, 1056.3 kPa, x1 = 0.2658 | 18.3225
293.14 K, 1105.7 kPa, x1 = 0.2658 | 19.3404
293.14 K, 1807.2 kPa, x1 = 0.5069 | 25.9503
293.15 K, 258.04 kPa, x1 = 0.2658 | 3.9961
293.15 K, 355.08 kPa, x1 = 0.2658 | 5.5657
293.15 K, 393.88 kPa, x1 = 0.5069 | 4.9714
293.15 K, 613.82 kPa, x1 = 0.5069 | 7.8849
293.15 K, 655.65 kPa, x1 = 0.2658 | 10.6963
293.15 K, 803.74 kPa, x1 = 0.5069 | 10.489
293.15 K, 857.4 kPa, x1 = 0.2658 | 14.4071
293.15 K, 955.25 kPa, x1 = 0.2658 | 16.2977
293.15 K, 1006.2 kPa, x1 = 0.5069 | 13.3634
